Data published in the supplement of paper PMC11208160.

Experiment: recombinant UMI read abundance after kanamycin selection (control-corrected) (log10(CPM+1)); higher = more efficient recombination; extreme values may be limits of the assay; sequences stand for … in AGTGCAGAGAAAATCGGCCAGTTTTCTCTGCCTGCAGTCCGCATGCCGTGGGACCCCTTGGGTTCTAACCTGTTGCCTAGATTTATGCAGCGGACTGCCTTTCTCCCAAAGTGATAAACCGG…AGGTTGGTTTCACT; site = the 11-nt donor
Method in brief: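 Counts of recombinant UMIs were reported as log10(CPM+1). Before that, they were converted to CPM, averaged over replicates and scaled using control-derived factors. They came from PCR across the donor–target junction after Escherichia coli carrying the pair library and target plasmid was plated on IPTG (0.07 mM) plus kanamycin, or unselected, in two replicates each.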
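Further: IS621 bridge recombinase in Escherichia coli cells against a fixed T5 target plasmid.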

| Sequence | recombinant UMI read abundance (log10) |
| --- | --- |
| CGGGACCCATGGACCGGTTTTCCCGGTAATCCGTATTTGAT (site CGGGAACCTAT) | 0.00853 |
| CGGGACCCATGGACCGGTTTTCCCGGTAATCCGTATTTGAT (site CGGGACCCTAT) | 0.879 |
| CGGGACCCATGGACCGGTTTTCCCGGTAATCCGTATTTGAT (site CGGGAGCCTAT) | 0.00629 |
| CGGGACCCATGGACCGGTTTTCCCGGTAATCCGTATTTGAT (site CGGGATCCTAT) | 0 |
| CGGGACGCATGGACCGGTTTTCCCGGTAATCCGTATTTGTA (site CGGGACGCTTA) | 2.82 |
| CGGGACTCATGGACCGGTTTTCCCGGTAATCCGTATTTGCC (site CGGGAATCTGG) | 2.14 |
| CGGGACTCATGGACCGGTTTTCCCGGTAATCCGTATTTGCC (site CGGGACTCTGG) | 3.01 |
| CGGGACTCATGGACCGGTTTTCCCGGTAATCCGTATTTGCC (site CGGGAGTCTGG) | 0 |
| CGGGACTCATGGACCGGTTTTCCCGGTAATCCGTATTTGCC (site CGGGATTCTGG) | 1.77 |
| CGGGAGTCATGGACCGGTTTTCCCGGTAATCCGTATTTGCA (site CGGGAGTCTAG) | 1.74 |
| CGGGAGTCATGGACCGGTTTTCCCGGTAATCCGTATTTGCA (site CGGGAGTCTCG) | 2.73 |
| CGGGAGTCATGGACCGGTTTTCCCGGTAATCCGTATTTGCA (site CGGGAGTCTGG) | 1.15 |
| CGGGAGTCATGGACCGGTTTTCCCGGTAATCCGTATTTGCA (site CGGGAGTCTTG) | 2.89 |
| CGGGCGTCATGGACCGGTTTTCCCGGTAATCCGTATTTGCC (site CGGGAGTCTGG) | 0 |
| CGGGCGTCATGGACCGGTTTTCCCGGTAATCCGTATTTGCC (site CGGGCGTCTGG) | 2.89 |
| CGGGCGTCATGGACCGGTTTTCCCGGTAATCCGTATTTGCC (site CGGGGGTCTGG) | 0 |
| CGGGCGTCATGGACCGGTTTTCCCGGTAATCCGTATTTGCC (site CGGGTGTCTGG) | 0 |
| CGGGGAACATGGACCGGTTTTCCCGGTAATCCGTATTTGTT (site CGAGGAACTAA) | 2.44 |
| CGGGGAACATGGACCGGTTTTCCCGGTAATCCGTATTTGTT (site CGCGGAACTAA) | 0.00411 |

| Sequence | recombinant UMI read abundance (log10) |
| --- | --- |
| CGGGGAACATGGACCGGTTTTCCCGGTAATCCGTATTTGTT (site CGGGGAACTAA) | 2.6 |
| CGGGGAACATGGACCGGTTTTCCCGGTAATCCGTATTTGTT (site CGTGGAACTAA) | 0.548 |
| CGGGTACCATGGACCGGTTTTCCCGGTAATCCGTATTTGTA (site CGGGTACCTTA) | 0.00704 |
| CGGGTCACATGGACCGGTTTTCCCGGTAATCCGTATTTGGC (site CGGGTCACTGC) | 3.54 |
| CGGGTGTCATGGACCGGTTTTCCCGGTAATCCGTATTTGCC (site CGGGAGTCTGG) | 0.659 |
| CGGGTGTCATGGACCGGTTTTCCCGGTAATCCGTATTTGCC (site CGGGCGTCTGG) | 1.74 |
| CGGGTGTCATGGACCGGTTTTCCCGGTAATCCGTATTTGCC (site CGGGGGTCTGG) | 0 |
| CGGGTGTCATGGACCGGTTTTCCCGGTAATCCGTATTTGCC (site CGGGTGTCTGG) | 2.69 |
| CGGGTTCCATGGACCGGTTTTCCCGGTAATCCGTATTTGTT (site CGGAATCCTAA) | 0.00595 |
| CGGGTTCCATGGACCGGTTTTCCCGGTAATCCGTATTTGTT (site CGGGTTCCTAA) | 0.776 |
| CGGTAACCATGGACCGGTTTTCCCGGTAATCCGTATTTGAT (site CGGAAACCTAT) | 0 |
| CGGTAACCATGGACCGGTTTTCCCGGTAATCCGTATTTGAT (site CGGCAACCTAT) | 0.00415 |
| CGGTAACCATGGACCGGTTTTCCCGGTAATCCGTATTTGAT (site CGGGAACCTAT) | 0 |
| CGGTAACCATGGACCGGTTTTCCCGGTAATCCGTATTTGAT (site CGGTAACCTAT) | 0 |
| CGGTAGACATGGACCGGTTTTCCCGGTAATCCGTATTTGCA (site AGGAAGACTTG) | 0 |
| CGGTAGACATGGACCGGTTTTCCCGGTAATCCGTATTTGCA (site CGGTAGACTTG) | 2.84 |
| CGGTAGCCATGGACCGGTTTTCCCGGTAATCCGTATTTGCT (site CGGTAGCCTAG) | 0.793 |
| CGGTATCCATGGACCGGTTTTCCCGGTAATCCGTATTTGTT (site CGGAATCCTAA) | 0 |
